The values below come from PMC3372491, “Application of Consensus Scoring and Principal Component Analysis for Virtual Screening against β-Secretase (BACE-1)” (PLoS ONE, 2012).

This experiment deals with T1, β-secretase (BACE-1) (Homo sapiens, UniProt P56817).
T1 construct: gene BACE1
As to the kind of experiment: BACE-1 FRET enzymatic assay. It is filed as biochemical.

T1 sequence (P56817 46-457): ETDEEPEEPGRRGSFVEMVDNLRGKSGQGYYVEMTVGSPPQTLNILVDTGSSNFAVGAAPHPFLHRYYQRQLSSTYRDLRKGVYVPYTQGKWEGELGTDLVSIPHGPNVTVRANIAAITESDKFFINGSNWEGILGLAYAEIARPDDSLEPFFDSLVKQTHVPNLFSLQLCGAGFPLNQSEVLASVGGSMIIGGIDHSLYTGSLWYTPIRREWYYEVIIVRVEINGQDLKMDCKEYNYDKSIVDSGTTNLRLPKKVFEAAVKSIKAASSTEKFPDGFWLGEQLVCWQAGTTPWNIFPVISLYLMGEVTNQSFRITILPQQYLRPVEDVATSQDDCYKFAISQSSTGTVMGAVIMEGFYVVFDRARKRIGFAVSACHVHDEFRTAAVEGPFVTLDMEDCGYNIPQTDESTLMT

Broadly, the IC50 is the point on the concentration scale where inhibition reaches its midpoint. Higher therefore signals weaker potency. With `N[C@@H](CCCCNC(=O)OCc1ccccc1)C(=O)OCc1ccccc1` [compound 1, S450588], the IC50 worked out at 51.6 µM.

As for `O=C(NCc1ccccc1)[C@@H](O)[C@H](O)C(=O)NCc1ccccc1` [compound 2, 276065], the IC50 amounted to 85.3 µM.
